Toxic doses and inconclusive results are not listed. No stated cut-off is given here; in the data, active means T/C of 150% or more; inactive means T/C below 125%.
Test system: L1210 leukemia ip in BDF1 mice, survival T/C
Test: NCI In Vivo Anticancer Drug Screen. Data for tumor model L1210 Leukemia (intraperitoneal) in B6D2F1 (BDF1) mice
Conditions: endpoint: mean survival time, higher = longer survival
In short: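 Survival endpoint. Drug-treated group vs vehicle group, expressed as T divided by C. Tumor passaged by transplantation.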

[1] = dose: 100.0 mg/kg/injection, schedule: Q01DX001 (ip), vehicle: Klucel (hydroxypropylcellulose) (HPC)
[2] = dose: 200.0 mg/kg/injection, schedule: Q01DX001 (ip), vehicle: Klucel (hydroxypropylcellulose) (HPC)
[3] = dose: 400.0 mg/kg/injection, schedule: Q01DX001 (ip), vehicle: Klucel (hydroxypropylcellulose) (HPC)
[4] = dose: 100.0 mg/kg/injection, schedule: Q01DX009 (ip), vehicle: Klucel (hydroxypropylcellulose) (HPC)
[5] = dose: 100.0 mg/kg/injection, schedule: Q04DX003 (ip), vehicle: Klucel (hydroxypropylcellulose) (HPC)
[6] = dose: 200.0 mg/kg/injection, schedule: Q01DX009 (ip), vehicle: Klucel (hydroxypropylcellulose) (HPC)
[7] = dose: 200.0 mg/kg/injection, schedule: Q04DX003 (ip), vehicle: Klucel (hydroxypropylcellulose) (HPC)
[8] = dose: 400.0 mg/kg/injection, schedule: Q04DX003 (ip), vehicle: Klucel (hydroxypropylcellulose) (HPC)
[9] = dose: 50.0 mg/kg/injection, schedule: Q01DX001 (ip), vehicle: carboxymethylcellulose (CMC)
[10] = dose: 100.0 mg/kg/injection, schedule: Q01DX001 (ip), vehicle: carboxymethylcellulose (CMC)
[11] = dose: 200.0 mg/kg/injection, schedule: Q01DX001 (ip), vehicle: carboxymethylcellulose (CMC)
[12] = dose: 400.0 mg/kg/injection, schedule: Q01DX001 (ip), vehicle: carboxymethylcellulose (CMC)
[13] = dose: 100.0 mg/kg/injection, schedule: Q04DX003 (ip), vehicle: saline

Measured: T/C

CC1(CCI)NC(=O)NC1=O (stereo unspecified)
inactive: [1] 98 % of control | [2] 104 % of control | [3] 111 % of control

Cc1cc(C(=O)NN)c(C#N)c(=O)[nH]1
inactive: dose: 100.0 mg/kg/injection, schedule: Q01DX001 (ip), vehicle: other 93 % of control | dose: 200.0 mg/kg/injection, schedule: Q01DX001 (ip), vehicle: other 95 % of control | dose: 400.0 mg/kg/injection, schedule: Q01DX001 (ip), vehicle: other 97 % of control

OCCNc1nc2cc(Cl)ccc2c2ccc(Cl)cc12
inactive: [4] 91 % of control | [5] 96 % of control | [6] 99 % of control | [7] 93 % of control | [8] 96 % of control

COc1ccc([N+](=O)[O-])cc1NC(=O)N(C1CCCCC1)C1CCCCC1
inactive: dose: 50.0 mg/kg/injection, schedule: Q01DX009 (ip), vehicle: Klucel (hydroxypropylcellulose) (HPC) 96 % of control | [4] 93 % of control | [6] 96 % of control

COC(=O)CC(=O)/C(=C/C(C/C=C(\C(=O)CC(=O)OC)C(=O)OC)OC)C(=O)OC (stereo unspecified)
inactive: [9] 103 % of control | [10] 101 % of control | [11] 101 % of control | [12] 100 % of control

CCCCC=C(C1CCCCC1)C1CCCCC1
inactive: dose: 75.0 mg/kg/injection, schedule: Q01DX001 (ip), vehicle: saline 104 % of control | dose: 75.0 mg/kg/injection, schedule: Q04DX003 (ip), vehicle: saline 92 % of control | dose: 150.0 mg/kg/injection, schedule: Q01DX001 (ip), vehicle: saline 93 % of control | dose: 150.0 mg/kg/injection, schedule: Q04DX003 (ip), vehicle: saline 101 % of control | dose: 300.0 mg/kg/injection, schedule: Q01DX001 (ip), vehicle: saline 91 % of control | dose: 300.0 mg/kg/injection, schedule: Q04DX003 (ip), vehicle: saline 100 % of control

CCOC(=O)NCC(CCN(C)C)(c1cccc2ccccc12)C(C)C (stereo unspecified)
inactive: dose: 100.0 mg/kg/injection, schedule: Q01DX009 (ip), vehicle: saline 98 % of control | [5] 97 % of control | dose: 200.0 mg/kg/injection, schedule: Q01DX009 (ip), vehicle: saline 107 % of control | [7] 97 % of control

O=C(CCN1CC1)Oc1ccc(Cl)cc1
inactive: dose: 100.0 mg/kg/injection, schedule: Q01DX001 (ip), vehicle: saline with Tween-80 97 % of control | dose: 200.0 mg/kg/injection, schedule: Q01DX001 (ip), vehicle: saline with Tween-80 95 % of control | dose: 400.0 mg/kg/injection, schedule: Q01DX001 (ip), vehicle: saline with Tween-80 95 % of control

Nc1[nH]c(=O)cc(O)c1N
inactive: dose: 12.5 mg/kg/injection, schedule: Q04DX003 (ip), vehicle: saline 108 % of control | dose: 25.0 mg/kg/injection, schedule: Q04DX003 (ip), vehicle: saline 105 % of control | [13] 98 % of control

CSc1ncnc2c1ncn2CC(=O)[C@@]1(O)CC[C@H]2[C@@H]3CCC4=CC(=O)CC[C@]4(C)[C@H]3[C@@H](O)C[C@@]21C
inactive: dose: 100.0 mg/kg/injection, schedule: Q01DX001 (sc), vehicle: steriod suspending solution 99 % of control | dose: 200.0 mg/kg/injection, schedule: Q01DX001 (sc), vehicle: steriod suspending solution 100 % of control | dose: 400.0 mg/kg/injection, schedule: Q01DX001 (sc), vehicle: steriod suspending solution 100 % of control

O=C1C(C2OC2c2ccccc2)CCCC1C1OC1c1ccccc1 (stereo unspecified)
inactive: dose: 100.0 mg/kg/injection, schedule: Q01DX009 (ip), vehicle: saline sonified 94 % of control | [5] 97 % of control | dose: 200.0 mg/kg/injection, schedule: Q01DX009 (ip), vehicle: saline sonified 97 % of control | [7] 98 % of control | dose: 400.0 mg/kg/injection, schedule: Q01DX009 (ip), vehicle: saline sonified 103 % of control | [8] 97 % of control

Brc1ccc2c(c1)nc1n2CCC1
inactive: dose: 100.0 mg/kg/injection, schedule: Q01DX001 (ip), vehicle: acetone 105 % of control | [13] 104 % of control | dose: 200.0 mg/kg/injection, schedule: Q01DX001 (ip), vehicle: acetone 108 % of control | dose: 200.0 mg/kg/injection, schedule: Q04DX003 (ip), vehicle: saline 111 % of control | dose: 400.0 mg/kg/injection, schedule: Q01DX001 (ip), vehicle: acetone 94 % of control | dose: 400.0 mg/kg/injection, schedule: Q04DX003 (ip), vehicle: saline 101 % of control

Cc1ccc2c(c1)C(c1ccccc1)(c1ccccc1)OC2
inactive: [9] 101 % of control | [10] 95 % of control | [11] 89 % of control | [12] 101 % of control

Cc1ccccc1-n1c(O)c(N=Nc2ccc(Br)cc2)c(=O)n(-c2ccccc2)c1=S
inactive: [1] 94 % of control | [2] 94 % of control | [3] 91 % of control

NC(=O)C1(NC2CCCCC2)CCN(Cc2ccccc2)CC1
inactive: dose: 50.0 mg/kg/injection, schedule: Q01DX009 (ip), vehicle: gum acacia 100 % of control | dose: 100.0 mg/kg/injection, schedule: Q01DX009 (ip), vehicle: gum acacia 100 % of control | dose: 100.0 mg/kg/injection, schedule: Q04DX003 (ip), vehicle: gum acacia 96 % of control | dose: 200.0 mg/kg/injection, schedule: Q01DX009 (ip), vehicle: gum acacia 93 % of control | dose: 200.0 mg/kg/injection, schedule: Q04DX003 (ip), vehicle: gum acacia 96 % of control

CC(Nc1ccccc1)(C(N)=O)c1ccccc1 (stereo unspecified)
inactive: dose: 100.0 mg/kg/injection, schedule: Q01DX001 (ip), vehicle: saline sonified 96 % of control | dose: 200.0 mg/kg/injection, schedule: Q01DX001 (ip), vehicle: saline sonified 100 % of control | dose: 400.0 mg/kg/injection, schedule: Q01DX001 (ip), vehicle: saline sonified 97 % of control

O=C1CCCc2ccc(Br)cc21
inactive: dose: 100.0 mg/kg/injection, schedule: Q04DX003 (ip), vehicle: saline with Tween-80 99 % of control | dose: 200.0 mg/kg/injection, schedule: Q04DX003 (ip), vehicle: saline with Tween-80 96 % of control | dose: 400.0 mg/kg/injection, schedule: Q04DX003 (ip), vehicle: saline with Tween-80 99 % of control

C[N+](C)(C)N=C1CCCCC1
inactive: dose: 100.0 mg/kg/injection, schedule: Q01DX001 (ip), vehicle: saline 104 % of control | dose: 200.0 mg/kg/injection, schedule: Q01DX001 (ip), vehicle: saline 104 % of control

C/C=C(\C)C(=O)Nc1ccc(Cl)c(Cl)c1
inactive: dose: 222.0 mg/kg/injection, schedule: Q01DX Z (ip), vehicle: methylcellulose (MC) 93 % of control | dose: 333.0 mg/kg/injection, schedule: Q01DX Z (ip), vehicle: methylcellulose (MC) 90 % of control | dose: 500.0 mg/kg/injection, schedule: Q01DX Z (ip), vehicle: methylcellulose (MC) 98 % of control

S=c1nc[nH]c2c1N=CNN2
inactive: dose: 5.0 mg/kg/injection, schedule: Q01DX001 (ip), vehicle: carboxymethylcellulose (CMC) 115 % of control | dose: 10.0 mg/kg/injection, schedule: Q01DX001 (ip), vehicle: carboxymethylcellulose (CMC) 90 % of control | dose: 20.0 mg/kg/injection, schedule: Q01DX001 (ip), vehicle: carboxymethylcellulose (CMC) 101 % of control | dose: 40.0 mg/kg/injection, schedule: Q01DX001 (ip), vehicle: carboxymethylcellulose (CMC) 96 % of control

From PubChem BioAssay AID248 (DTP/NCI, 2004)
